Measurements: patent US20220251124A1, “3,5-BIS(PHENYL)-1H-HETEROARYL DERIVATIVES AS MEDICAMENTS” (INSTITUTE OF BIOTECHNOLOGY CAS, V.V.I., priority 2019, published 2022)

Assays:
T47D = assay: crystal violet assay, cellular viability, 48 hrs; type: cell-based; settings: T47D (parental/control)
Description: [The source words this procedure for another cell line and reports this cell line under the same test.] (§1) Compound 1 and a comparative compound deferasirox (DFX) were tested in their efficacy to kill/suppress proliferation of malignant breast cancer MCF7 cells representing estrogen-dependent type of breast cancer. Briefly, 10.000 cells per well were seeded in a 96-well plate on one day and the next day the tested compounds were added and incubated with the cells for 48 hrs. The cells were then fixed with 4% paraformaldehyde, stained with 0.05% crystal violet, washed with PBS, and solubilized in 1% SDS. The absorbance of the plate at 595 nm was then measured, quantifying the number of viable cells.
(§2) Compounds 1, 2 and the comparative compound deferasirox were tested in their efficacy to suppress proliferation/kill several malignant cell lines of breast, pancreatic and ovarian origin (MCF7, MDA-MB-231, BxPC3 and OVCAR3). The procedure is identical to that in example 12.

[1] = tested on: non-malignant fibroblasts (HFP1); assay: crystal violet assay, cellular viability, 48 hrs; type: cell-based; settings: Fibroblast
Description: [The source words this procedure for another cell line and reports this cell line under the same test.] as §1, §2

OVCAR3 = assay: crystal violet assay, cellular viability, 48 hrs; type: cell-based; settings: Homo sapiens, OVCAR-3
Description: as §1, §2

BxPC3 [2] = assay: crystal violet assay, cellular viability, 48 hrs; type: cell-based; settings: Homo sapiens, BXPC-3
Description: as §1, §2

BxPC3 [3] = assay: annexin V/PI staining, cell death induction, 48 hrs; type: cell-based
Description: (§3) This effect seems to be based mainly on the cytostatic effect of compound 1. To define the ability to kill cells, cell death-inducing potency (cytotoxic efficacy) of DFX and compound 1 have been tested via annexin V/PI staining commonly used as a measure of apoptotic/necrotic cell death. Briefly, cells were seeded in 12-well plate at 100,000 per well, incubated with the selected compounds for 48 hours, then floating cells were spun, adherent cells trypsinized and spun as well followed by the staining with AnnexinV-FITC and PI probes. Cells were then washed with PBS and measured via Fluorescence Activated Sorter.

non malignant cells MRC5 = assay: as above; type: cell-based
Description: as §3

MCF7 cells = assay: oxygen consumption rate (OCR), Seahorse XFe96; type: cell-based; settings: for Oxygen consumption rate, Basal / Oxygen consumption rate, Maximal / Oxygen consumption rate, Proton-leak: MCF7
Description: For Seahorse analysis, 20.000 cells were seeded in 96 well plates and added immediately before measurement (addition, Table 6) or incubated with compound 1 for 1 hour (preincubation, Table 7). Afterwards, oxygen consumption rate (OCR) was measured in three cycles of 3 minutes preceded by 3 minutes of mixing, using a Seahorse XFe96 analyzer (Agilent). Results express the mean values of the three cycles.

[4] = tested on: MCF7 mammospheres (cancer stem-like cells); assay: formation and growth of mammospheres, Cell Titer Glo 3D; type: cell-based; settings: 1 μM, 140 hrs
Description: To test the effect of compound 1 on the viability and proliferation of other resistant cancer cell types, we utilized a model of cancer stem-like cells that can be cultivated in vitro, so-called “mammospheres”. […] In this assay MCF7 spheres were dissociated to single cells/small spheres, seeded 10,000 cells per well on a special cell culture plastic that is non adherent in the Mammocult medium (Stem cell technologies) and compound 1 and compound 2 at 1 μM were added. This represents the non-cytotoxic concentration. Cells were left to grow and generate spheres for 140 hrs. The amount of cells was then measured by the Cell TiterGlo 3D reagent (Promega) that determines cell counts of 3D cultured cells as a function of their ATP content that is determined by a chemiluminescent assay.

MDA-MB-231 [5] = assay: mitochondrial ROS, mitoSOX probe, flow cytometry; type: cell-based
Description: (§4) The effect of compound 1 on generation of mitochondrial reactive oxygen species (ROS) was evaluated in MCF7 and MDA-MB-231 cells using a specific mitochondrially targeted probe mitoSOX (ThermoFisher Scientific) that measures mostly mitochondrial superoxide and upon binding becomes fluorescent. Cells treated with compound 1 for the described time interval were stained with the probe and then analyzed via Flow cytometry.

MCF7 = assay: mitochondrial ROS, mitoSOX probe, flow cytometry; type: cell-based
Description: as §4

MDA-MB-231 [6] = assay: annexin V/PI staining, cell death induction, 48 hrs; type: cell-based
[7] = tested on: triple negative breast cancer cells (MDA-MB-231) xenograft; assay: tumor growth in xenograft model; type: in vivo, NOD/SCID gamma mice; settings: for relative tumor size compared to day 0: 2/week
Description: The effect of compound 1 on tumor growth in vivo was assessed in a xenograft model of triple negative breast cancer cells (MDA-MB-231) injected into NOD/SCID gamma mice. 1×10^6 cells were injected subcutaneously into each mouse. When the tumors were approximately 10 mm^3 in volume, the animals were randomly divided in two groups and injected intra-peritoneally with either compound 1 (2 mg/kg in corn oil) or vehicle (2.5% DMSO in corn oil), twice per week for 21 days. Tumor size was determined by ultrasound using a Vevo 3100 Preclinical Imaging System (VisualSonics).

O=C(NCCCCCCCCCC[P+](c1ccccc1)(c1ccccc1)c1ccccc1)c1ccc(-n2nc(-c3ccccc3O)nc2-c2ccccc2O)cc1 [Compound 1, (10-(4-(3,5-bis(2-hydroxyphenyl)-1H-1,2,4-triazol-1-yl)benzamido)decyl) triphenylphosphonium Chloride] showed an IC50 (T47D; Homo sapiens) of 0.031 µM, an IC50 [1] of 0.532 µM and an IC50 (OVCAR3) of 0.154 µM. The IC50 (BxPC3 [2]) was 0.15 µM, the “dead cells (AnnexinV/PI)” value (BxPC3 [3]; 5 μM) was 37.8 (16.1) % and the “dead cells (AnnexinV/PI)” value (non malignant cells MRC5; 1 μM) was 14.5 (1.7) %. The “dead cells (AnnexinV/PI)” value (non malignant cells MRC5; 2 μM) was 19.6 (1.9) %, the “dead cells (AnnexinV/PI)” value (non malignant cells MRC5; 5 μM) was 15.0 (2.0) % and the “Oxygen consumption rate, Basal” value (MCF7 cells; 5 μM, 1 h preincubation) was 39.9 (5.8) pmol*min^−1 10.000 cells^−1. The “Oxygen consumption rate, Maximal” value (MCF7 cells; 5 μM, 1 h preincubation) was 20.7 (4.5) pmol*min^−1 10.000 cells^−1, the “Oxygen consumption rate, Proton-leak” value (MCF7 cells; 5 μM, 1 h preincubation) was 33.1 (4.7) pmol*min^−1 10.000 cells^−1 and the “Oxygen consumption rate, Basal” value (MCF7 cells; 5 μM, immediate addition) was 52.4 (9.2) pmol*min^−1 10.000 cells^−1. The “Oxygen consumption rate, Maximal” value (MCF7 cells; 5 μM, immediate addition) was 29.7 (5.8) pmol*min^−1 10.000 cells^−1, the “Oxygen consumption rate, Proton-leak” value (MCF7 cells; 5 μM, immediate addition) was 43.5 (7.6) pmol*min^−1 10.000 cells^−1 and the “Oxygen consumption rate, Basal” value (MCF7 cells; 10 μM, 1 h preincubation) was 30.9 (3.1) pmol*min^−1 10.000 cells^−1. The “Oxygen consumption rate, Maximal” value (MCF7 cells; 10 μM, 1 h preincubation) was 17.4 (3.8) pmol*min^−1 10.000 cells^−1, the “Oxygen consumption rate, Proton-leak” value (MCF7 cells; 10 μM, 1 h preincubation) was 25.9 (3.1) pmol*min^−1 10.000 cells^−1 and the “Oxygen consumption rate, Basal” value (MCF7 cells; 10 μM, immediate addition) was 49.6 (9.6) pmol*min^−1 10.000 cells^−1. The “Oxygen consumption rate, Maximal” value (MCF7 cells; 10 μM, immediate addition) was 26.3 (5.4) pmol*min^−1 10.000 cells^−1, the “Oxygen consumption rate, Proton-leak” value (MCF7 cells; 10 μM, immediate addition) was 37.3 (6.1) pmol*min^−1 10.000 cells^−1 and the “effect on cellular respiration” value (MCF7 cells; OCR, Seahorse) was “marked inhibition of cellular respiration”. For the same compound, the “chemiluminescence ATP values normalized to control sample set as 100” value [4] was 6.61 (1.91), the MitoSOX mean fluorescence (MDA-MB-231 [5]; 5 min, MDA-MB-231 (0 min = 100)) was 134.7 (36.9) and the MitoSOX mean fluorescence (MDA-MB-231 [5]; 10 min, MDA-MB-231) was 196.7 (41.5). For the same compound, the MitoSOX mean fluorescence (MDA-MB-231 [5]; 15 min, MDA-MB-231) was 284.7 (103.2), the MitoSOX mean fluorescence (MDA-MB-231 [5]; 30 min, MDA-MB-231) was 379.1 (76.9) and the MitoSOX mean fluorescence (MDA-MB-231 [5]; 60 min, MDA-MB-231) was 439.1 (83.0). For the same compound, the MitoSOX mean fluorescence (MDA-MB-231 [5]; 120 min, MDA-MB-231) was 588.2 (14.11), the MitoSOX mean fluorescence (MDA-MB-231 [5]; 180 min, MDA-MB-231) was 560.8 (27.5) and the MitoSOX mean fluorescence (MDA-MB-231 [5]; 240 min, MDA-MB-231) was 612.5 (37.5). The MitoSOX mean fluorescence (MCF7; 5 min, MCF7 (0 min = 100)) was 176.5 (15.0), the MitoSOX mean fluorescence (MCF7; 10 min, MCF7) was 177.6 (26.1) and the MitoSOX mean fluorescence (MCF7; 15 min, MCF7) was 191.6 (47.0). The MitoSOX mean fluorescence (MCF7; 30 min, MCF7) was 230.8 (85.2), the MitoSOX mean fluorescence (MCF7; 60 min, MCF7) was 235.9 (99.3) and the MitoSOX mean fluorescence (MCF7; 120 min, MCF7) was 171.1 (17.6). The MitoSOX mean fluorescence (MCF7; 180 min, MCF7) was 165.4 (8.9), the MitoSOX mean fluorescence (MCF7; 240 min, MCF7) was 207.7 (18.5) and the “dead cells (AnnexinV/PI)” value (MDA-MB-231 [6]; 5 μM) was 53.5 (23.1) %. The “dead cells (AnnexinV/PI)” value (MDA-MB-231 [6]; 5 μM, +Fe^+3 (pre-loaded with iron at a 2:1 ratio)) was 15.9 (2.7) %, the “dead cells (AnnexinV/PI)” value (MDA-MB-231 [6]; 5 μM, alone) was 61.1 (18.8) % and the “dead cells (AnnexinV/PI)” value (MDA-MB-231 [6]; 10 μM, +Fe^+3 (pre-loaded with iron at a 2:1 ratio)) was 22.4 (6.1) %. The “dead cells (AnnexinV/PI)” value (MDA-MB-231 [6]; 10 μM, alone) was 88.2 (5.8) %, the “effect on tumor growth” value ([7]; 2 mg/kg intra-peritoneally, twice per week for 21 days) was “significantly slows down the tumor growth” and the “relative tumor size compared to day 0” value ([7]; day 4, 2 mg/kg intra-peritoneally) was 1.18 (0.3). The “relative tumor size compared to day 0” value ([7]; day 7, 2 mg/kg intra-peritoneally) was 2.04 (0.3), the “relative tumor size compared to day 0” value ([7]; day 10, 2 mg/kg intra-peritoneally) was 3.00 (0.4) and the “relative tumor size compared to day 0” value ([7]; day 14, 2 mg/kg intra-peritoneally) was 4.90 (0.8). The “relative tumor size compared to day 0” value ([7]; day 17, 2 mg/kg intra-peritoneally) was 4.44 (0.3) and the “relative tumor size compared to day 0” value ([7]; day 21, 2 mg/kg intra-peritoneally) was 5.12 (0.6).

O=C(O)c1ccc(-n2nc(-c3ccccc3O)nc2-c2ccccc2O)cc1 [DFX, deferasirox, reference compound] was tested, and the IC50 (T47D; Homo sapiens, T47D, 48 h) was 60.8 µM, the IC50 (T47D) was 60.8 µM and the IC50 [1] was 37.9 µM. The IC50 (OVCAR3) was 19.2 µM, the IC50 (BxPC3 [2]) was 22.9 µM and the “dead cells (AnnexinV/PI)” value (BxPC3 [3]; 500 μM) was 45.8 (21.3) %. The “dead cells (AnnexinV/PI)” value (non malignant cells MRC5; 500 μM) was 43.7 (7.7) %.
